This note sets out measurements from patent US20260297060A1, “COMPOUNDS FOR THE DEGRADATION OF MUTANT BRAF” (C4 THERAPEUTICS, INC., priority 2023, published 2026).

The subject of the test is A375-NRAS^Q61K cells. Briefly: CTGlo Cell Viability Assay, A375-NRAS^Q61K (A375.11) cells, 96 hours. The class given is cell-based, human. The settings on record: A375.11 (A375-NRAS^Q61K) cells; for Emax: lowest % viability achieved. The method, boiled down:
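A375 cells carrying BRAF V600E and NRAS Q61K were seeded at 250 cells/well with a 10-point half-log dose series (max 10 μM final). After 96 h at 37 °C, viability was read as ATP luminescence (CellTiter-Glo), background-subtracted and normalized to DMSO (100%). GI50 from 4-parameter fit; Emax is the lowest % viability.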

For the setting “Homo sapiens, 96 h”, `CCN(C)S(=O)(=O)Nc1ccc(F)c(Oc2ccc3ncn([C@H]4COC5(CCN(C6CC7(C6)CN(c6ccc(NC8CCC(=O)NC8=O)cc6F)C7)CC5)C4)c(=O)c3c2)c1C#N` (stereo partly drawn) [Compound 35, (3R)-3-[6-[2-cyano-3-[[ethyl(methyl)sulfamoyl]amino]-6-fluoro-phenoxy]-4-oxo-quinazolin-3-yl]-8-[2-[4-[(2,6-dioxo-3-piperidyl)amino]-2-fluoro-phenyl]-2-azaspiro[3.3]heptan-6-yl]-1-oxa-8-azaspiro[4.5]decane] had a GI50 of 1000 to 10000 nM and an Emax of 50 to 90%.
Under “Homo sapiens, 96 h”, `Cn1nc(N2CCC(=O)NC2=O)c2cc(F)c(C3CCC(N4CCC5(CC4)CC(n4cnc6ccc(Oc7c(F)ccc(NS(=O)(=O)C8CCCC8)c7C#N)cc6c4=O)C5)CC3)cc21` (single isomer, unassigned) [Compound 93, N-[2-cyano-3-[3-[7-[4-[3-(2,4-dioxohexahydropyrimidin-1-yl)-5-fluoro-1-methyl-indazol-6-yl]cyclohexyl]-7-azaspiro[3.5]nonan-2-yl]-4-oxo-quinazolin-6-yl]oxy-4-fluoro-phenyl]cyclopentanesulfonamide] had a GI50 of less than 1000 nM and an Emax of less than 50%.
Take `CN(CCO)S(=O)(=O)Nc1ccc(F)c(Oc2ccc3ncn(C4CC5(CCN(C6CCC(c7ccc(NC8CCC(=O)NC8=O)cc7F)CC6)CC5)C4)c(=O)c3c2)c1C#N` (single isomer, unassigned) [Compound 79, 6-[2-cyano-6-fluoro-3-[[2-hydroxyethyl(methyl)sulfamoyl]amino]phenoxy]-3-[7-[4-[4-[(2,6-dioxo-3-piperidyl)amino]-2-fluoro-phenyl]cyclohexyl]-7-azaspiro[3.5]nonan-2-yl]-4-oxo-quinazoline]: the GI50 lay within 1000 to 10000 nM. This molecule registered an Emax (Homo sapiens, 96 h) of 50 to 90%.
For `CCN(C)S(=O)(=O)Nc1ccc(F)c(Nc2ccc3ncn([C@H]4COC5(CCN(C6CCC(c7cc8c(cc7F)c(N7CCC(=O)NC7=O)nn8C)CC6)CC5)C4)c(=O)c3c2)c1C#N` (single isomer, unassigned) [Compound 64], in that order: 1000 to 10000 nM and 50 to 90%.
For the setting “Homo sapiens, 96 h”, `CCN(C)S(=O)(=O)Nc1ccc(F)c(Oc2ccc3ncn([C@H]4COC5(CCN(C6CCC(c7cc8c(cc7F)c(N7CCC(=O)NC7=O)nn8C)CC6O)CC5)C4)c(=O)c3c2)c1C#N` (single isomer, unassigned) [Compound 43] yielded a GI50 of less than 1000 nM and an Emax of 50 to 90%.
In the case of `CCN(C)S(=O)(=O)Nc1ccc(F)c(Oc2ccc3ncn([C@H]4COC5(CCN(C6CCC(c7ccc(N[C@@H]8CCC(=O)NC8=O)cc7F)CC6)CC5)C4)c(=O)c3c2)c1C#N` (single isomer, unassigned) [Compound 4], under “Homo sapiens, 96 h”, the GI50 was less than 1000 nM and the Emax is less than 50%.
For the setting “Homo sapiens, 96 h”, `CN(CCO)S(=O)(=O)Nc1ccc(F)c(Oc2ccc3ncn([C@H]4COC5(CCN(C6CCC(c7ccc(NC8CCC(=O)NC8=O)cc7F)CC6)CC5)C4)c(=O)c3c2)c1C#N` (single isomer, unassigned) [Compound 76] returned a GI50 of less than 1000 nM and an Emax of less than 50%.
`CO[C@H]1CCN(S(=O)(=O)Nc2ccc(F)c(Oc3ccc4ncn(C5CC6(CCN(C7CCC(c8cc9c(cc8F)c(N8CCC(=O)NC8=O)nn9C)CC7)CC6)C5)c(=O)c4c3)c2C#N)C1` (single isomer, unassigned) [Compound 103]: the GI50 was greater than 10000 nM. Also, for the setting “Homo sapiens, 96 h”, the Emax was 50 to 90%.
With `CO[C@@H]1CCN(S(=O)(=O)Nc2ccc(F)c(Oc3ccc4ncn(C5CC6(CCN(C7CCC(c8cc9c(cc8F)c(N8CCC(=O)NC8=O)nn9C)CC7)CC6)C5)c(=O)c4c3)c2C#N)C1` (single isomer, unassigned) [Compound 101], for the setting “Homo sapiens, 96 h”, the GI50 is less than 1000 nM and the Emax is less than 50%.
